Patent US12660818B2, “Strigolactone analogs and methods of using” (King Abdullah University of Science and Technology, priority 2019, dated 2026)
Read-outs that look alike come from different tables or passages of the source.

Tests used:
[1] = test system: SL insensitive d3 rice mutant; experiment: Rice micro tillering bioassay, SL insensitive d3 mutant; format: in vivo; conditions: 2.5 μM, three weeks, no effect of treatment
Method: (§1) After sterilization with 50% sodium hypochlorite, rice seeds (d10/CCD8 and d3 mutants) were germinated on moist filter paper in the dark at 30° C. The germinated seeds were then transferred to light in a growth cabinet with fluorescent white light (130-180 μM m^−2 s^−1) at 30° C. for seven days. One-week old rice seedlings were shifted to 50 ml falcon tubes (one seedling per tube) filled with half-strength modified Hoagland nutrient solution. The tubes with rice seedlings were kept in green house to grow at 30° C. and 70% humidity. After one week, the rice seedlings were treated with 2.5 μM of each SL analog. Mock and GR24 (2.5 μM) were included as control treatments. Each of the SL analogs (MPs 16-18 and 21-25) was applied twice per week up to three weeks. Number of tillers per plant, plant height and dry biomass were measured after three weeks of SL analogs application at final harvest.
(§2) Standard procedure was adopted to collect data for each trait, which were analyzed statistically using statistical software package R (version 3.2.2). One-way analysis of variance (ANOVA) and LSD (Least significant difference) multiple range test were applied to investigate the effect of various SL analogs (MPs 16-18 and 21-25) for various parameters. Half Maximum Effective Concentration (EC50) was calculated using IC50 toolkit (http://www.ic50.tk/index.html).

OsD14 = biological target: T1, OsD14 (Oryza sativa subsp. japonica, UniProt Q10QA5); experiment: In vitro YLG (Yoshimulactone Green) hydrolysis competition assay with OsD14; format: biochemical, rice
T1 construct: made in house
T1 sequence (Q10QA5 1-318): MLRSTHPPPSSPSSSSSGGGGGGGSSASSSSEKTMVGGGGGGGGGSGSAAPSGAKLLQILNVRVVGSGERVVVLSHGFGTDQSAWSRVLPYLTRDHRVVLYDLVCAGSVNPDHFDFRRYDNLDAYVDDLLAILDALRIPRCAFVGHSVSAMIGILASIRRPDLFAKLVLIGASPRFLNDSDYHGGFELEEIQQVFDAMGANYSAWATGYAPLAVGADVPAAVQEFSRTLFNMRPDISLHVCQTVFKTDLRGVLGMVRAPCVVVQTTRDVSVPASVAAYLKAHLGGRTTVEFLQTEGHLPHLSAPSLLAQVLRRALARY
Method: (§3) Purification of ShHTL7/OsD14 was carried out by adopting the procedure explained previously (Jamil et al., 2018). In vitro YLG hydrolysis assays were conducted as described before (Tsuchiya et al., 2015). About 3.0 μM of purified ShHTL7/OsD14 protein was used in a reaction buffer (1×PBS buffer, pH 7.3) with 0.1% dimethyl sulfoxide (DMSO) at a 100 μl volume on a 96-well black plate (Greiner). SL analogs (at range between 0.01 to 50 μM) were co-incubated with 1.0 μM of YLG (Tokyo Chemical Industry Co. Ltd., product number E1238) for 60 min at room temperature. In this competition assay, fluorescent intensity was measured by spectraMax i5 (Molecular Devices) at excitation at 480 nm and detection at 520 nm. The variation in fluorescence recorded over the course of 1 h of YLG incubation in protein-free buffer was subtracted from the data collected in presence of protein. IC50 values were calculated by using Quest Graph™ IC50 Calculator.

[2] = test system: rice (cv IAC-165) leaf segments; experiment: Dark-induced leaf senescence of rice leaf segments; conditions: 3.0 μM; for ion leakage (loss of membrane integrity): continued to increase till day 6; for chlorophyll content: third and fourth day of treatment
Method: Rice seeds (cv IAC-165) were surface sterilized with 50% sodium hypochlorite solution and 0.05% Tween-20, and germinated on moist filter paper in the sealed petri plates. The petri plates with germinated seeds were transferred to white fluorescent light (130-180 μM m^−2 s^−1) with 16 h:8 h (L/D) at 28° C., to establish seedlings for one week. Seven days old uniform seedlings were selected and transferred to 50 ml tubes containing half strength modified Hoaglands nutrient solution. After one week, 2 cm leaf segments were cut from middle part of third leaves of rice plants. Each segment was put in a well (in 12-well plates) containing 4 ml of 3.0 mM MES buffer with 0.05% Tween-20. MP16 and GR24 were applied at 3.0 μM concentration. Plates were incubated at 30° C. in the dark for 7 days. After application of MP16 and GR24, plates were monitored on a daily basis and changes in leaf color, chlorophyll content and ion leakage were monitored.

P. aegyptiaca seeds = experiment: Parasitic seed germination bioassay, Phelipanche; format: in vivo, Phelipanche aegyptiaca; conditions: 2.5 μM; for Phelipanche aegyptiaca germination rate: one week at 25° C. in dark
Method: (§4) Seeds of the two root parasitic species S. hermonthica and P. aegyptiaca were tested for germination in response to MP compounds application. After pre-conditioning, as previously described (Jamil et al., 2012), Striga and Phelipanche seeds were first tested with each MP solutions at 2.5 μM concentration (55 μl per disc) and then at a concentration range from 10^−5M to 10^−12M, to calculate EC50. Sterile MilliQ water and GR24 were applied as a negative and a positive control, respectively. Treated seeds were incubated in dark for 24 h at 30° C. (for S. hermonthica) and for one week at 25° C. (for P. aegyptiaca). Germination was recorded under a binocular microscope and used to determine the germination rate (%).

ShHTL7 = ShHTL7 (Striga hermonthica, UniProt A0A0M3PNA2); experiment: In vitro YLG (Yoshimulactone Green) hydrolysis competition assay with ShHTL7; format: biochemical; conditions: competition with 1.0 μM YLG, 60 min, room temperature
ShHTL7, sequence (A0A0M3PNA2 entry or part of it): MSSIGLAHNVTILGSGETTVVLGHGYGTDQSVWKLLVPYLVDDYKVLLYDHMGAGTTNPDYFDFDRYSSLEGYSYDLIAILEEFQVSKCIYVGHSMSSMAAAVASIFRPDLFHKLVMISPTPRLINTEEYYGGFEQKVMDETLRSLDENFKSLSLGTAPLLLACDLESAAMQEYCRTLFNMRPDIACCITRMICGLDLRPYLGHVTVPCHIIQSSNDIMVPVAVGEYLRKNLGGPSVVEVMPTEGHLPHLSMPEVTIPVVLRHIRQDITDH
Method: as §3

S. hermonthica seeds [3] = experiment: Parasitic seed germination bioassay, Striga; format: in vivo, Striga hermonthica; conditions: for Striga germination rate / Striga germination rate (comparison in words): 2.5 μM; for Striga germination rate: 24 h at 30° C. in dark; for EC50: 10^−5M to 10^−12M
Method: as §2, §4

S. hermonthica seeds [4] = conditions: previously described MPs, cited from earlier work
[5] = Chemical stability in aqueous solution monitored by HPLC/UPLC; format: physicochemical; conditions: aqueous solution pH 5.5-6.0, 21±1° C., HPLC, up to 3 weeks
Method: Three selected MPs (MP16, MP18, MP21) and rac-GR24 were tested for their chemical stability at 21±1° C. in aqueous solution with a pH of 5.5-6.0, as described previously (Jamil et al., 2018). Compound solution (1 mg ml^−1) was prepared with […] and 750 μl Mili-Q water. Thereafter, 25 μl Indanol (1 mg ml^−1, internal standard) was spiked in 975 μl previous prepared solution. The time course of degradation was monitored in about 50 μl aliquots by UPLC analysis using an Agilent HPLC ZORBAX Eclipse XDB-C18 column ([…], 4.6×150 mm) eluted first by 5% acetonitrile in water for 0.5 min then by a gradient from 5% to 100% acetonitrile within 18 min in water, and finally by 100% acetonitrile for 5 min. The column was operated at 40° C. at […] flow rate. Compounds eluted from the column were detected with a photodiode array detector, and the relative quantity of non-degraded amount was calculated using Indanol as internal standard. Stability was monitored at 24 h intervals up to 3 weeks.

[6] = test system: SL deficient d10/CCD8 rice mutant; experiment: Rice micro tillering bioassay, SL deficient d10/CCD8 mutant; format: in vivo; conditions: 2.5 μM
Method: as §1, §2

Row | Compound | Phelipanche aegyptiaca germination rate (P. aegyptiaca seeds) | stability (relative amount of non-degraded compound) compared to GR24 [5] | Striga germination rate (comparison in words) (S. hermonthica seeds [3]) | EC50 (S. hermonthica seeds [3]; Striga hermonthica) [nM] | EC50 compared with MPs 19 and 20 (S. hermonthica seeds [3]; Striga seed germination) | Phelipanche seed germination (comparison in words) (P. aegyptiaca seeds) | further results
1 | CC1=C[C@H](O/C=C2/C(=O)O[C@@H]3c4ccccc4C[C@H]23)OC1=O [GR24, reference compound] | 43% |  |  |  |  |  | number of tillers per plant [1]: 4; IC50 (OsD14; competition with 1.0 μM YLG, 60 min, room temperature, read-out: IC50, OsD14-mediated YLG hydrolysis): 1040 ± 90 nM; loss of the green color of leaf segments (time) ([2]; dark, 30° C., one day earlier than mock control): on the third day after application; ion leakage (loss of membrane integrity) ([2]; dark): began to increase on the third day of treatment; chlorophyll content [2]: significant reduction; IC50 (ShHTL7): 980 ± 260 nM; Striga germination rate (S. hermonthica seeds [3]): 72%; EC50 (S. hermonthica seeds [3]): 0.0723 nM
2 | COC(=O)/C(=C/OC1C=C(C)C(=O)O1)c1ccc([N+](=O)[O-])cc1 (centres unmarked) [MP1] |  |  |  |  |  |  | EC50 relative to that of GR24 (Jamil et al., 2018) (S. hermonthica seeds [4]): about 17 times; EC50 (S. hermonthica seeds [4]; read-out: EC50 (Striga seed germination, Jamil et al., 2018)): 1.5 nM
3 | CC1=CC(O/C=C(\C(=O)N(C)C)c2ccccc2)OC1=O (centres unmarked) [MP16, (Z)—N,N-Dimethyl-3-((4-methyl-5-oxo-2,5-dihydrofuran-2-yl)oxy)-2-phenylacrylamide] | around 51% | in the range of that of GR24 | higher than MPs 19 and 20 | 0.105 | lower EC50 than MPs 19 and 20 |  | IC50 (OsD14): 3070 ± 540 nM; ion leakage (loss of membrane integrity) ([2]; dark): began to increase on the third day of treatment; chlorophyll content [2]: significant reduction; IC50 (ShHTL7): 4370 ± 210 nM; tillering inhibition (in words) ([6]; d10 mutant, compared to mock treatment): more effective compared with MPs 19 and 20; effect on growth, biomass and plant height ([6]; rice seedlings, compared with GR24): stunted growth and triggered senescence in rice seedlings, leading to reduced biomass and plant height; Striga germination rate (S. hermonthica seeds [3]): 62%; EC50 relative to that of GR24 (S. hermonthica seeds [3]; Striga seed germination): less than two times higher
4 | CC1=CC(O/C=C(/C(=O)Oc2ccccc2)c2ccccc2)OC1=O (centres unmarked) [MP17, (E)-Phenyl 3-((4-methyl-5-oxo-2,5-dihydrofuran-2-yl)oxy)-2-phenylacrylate] |  |  | lower germination rate | 4350 |  |  | 
5 | CC1=CC(O/C=C(/C(=O)OCc2ccccc2)c2ccccc2)OC1=O (centres unmarked) [MP18, (E)-Benzyl 3-((4-methyl-5-oxo-2,5-dihydrofuran-2-yl)oxy)-2-phenylacrylate] | around 51% | in the range of that of GR24 | lower germination rate | 6.44 | lower EC50 than MPs 19 and 20 |  | 
6 | CC1=CC(O/C=C(/C(=O)OCC(C)C)c2ccccc2)OC1=O (centres unmarked) [MP19, reference compound] |  |  |  |  |  | comparable germination rate as MPs 16 and 18 | 
7 | CC1=CC(O/C=C(/C(=O)OCc2ccccc2)c2ccccc2)OC1=O (centres unmarked) [MP21, (E)-Benzyl 3-((4-methyl-5-oxo-2,5-dihydrofuran-2-yl)oxy)-2-phenylacrylate] |  | higher degradation rate, compared to GR24 |  |  | lower EC50 than MPs 19 and 20 | lower activity | 
8 | CC1=CC(O/C=C(/C(=O)Oc2cccc(Cl)c2)c2ccccc2)OC1=O (centres unmarked) [MP22, (E)-3-Chlorophenyl 3-((4-methyl-5-oxo-2,5-dihydrofuran-2-yl)oxy)-2-phenylacrylate] |  |  |  |  |  | lower activity | 
9 | CC1=CC(O/C=C(/C(=O)Oc2ccc(C)cc2)c2ccccc2)OC1=O (centres unmarked) [MP24, (E)-p-Tolyl 3-((4-methyl-5-oxo-2,5-dihydrofuran-2-yl)oxy)-2-phenylacrylate] |  |  |  |  |  | lower activity | 
10 | CC1=CC(O/C=C(/C(=O)Oc2cccc3ccccc23)c2ccccc2)OC1=O (centres unmarked) [MP25, (E)-naphthalen-1-yl 3-((4-methyl-5-oxo-2,5-dihydrofuran-2-yl)oxy)-2-phenylacrylate] |  |  |  |  |  | lower activity | 
